Measured values: US11286299B2, “Peptides selective for Bcl-2 family proteins” (Massachusetts Institute of Technology, priority 2018, dated 2022)
Where two headings read alike, the source gives them in different places.

Assays:
[1] = biological target: T1, Bfl-1 (Homo sapiens, UniProt Q16548); settings: cited from earlier work
T1 sequence (Q16548 1-151): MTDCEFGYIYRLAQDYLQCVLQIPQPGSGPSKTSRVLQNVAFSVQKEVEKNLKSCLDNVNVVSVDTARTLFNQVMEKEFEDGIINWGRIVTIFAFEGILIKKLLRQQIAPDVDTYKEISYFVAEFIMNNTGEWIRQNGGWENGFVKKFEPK

[2] = biological target: T2, Mcl-1 (Homo sapiens, UniProt Q07820); settings: cited from earlier work; for Ki: Table X3, previously reported selective peptides, read-out: reported affinity, Mcl-1
[3] = biological target: T3, Bcl-xL (Homo sapiens, UniProt Q07817); settings: cited from earlier work; for Ki: Table X3, previously reported selective peptides, read-out: reported affinity, Bcl-xL
[4] = biological target: T3, Bcl-xL; assay: Competition fluorescence polarization (anisotropy) binding assay; design: human Bcl-xL residues 1-209; made in house; host or cells: E. coli
Method: (§1) Fluorescence polarization competition binding assay Competition fluorescence polarization experiments were performed as described by Jenson et al. […]. Experiments were performed in triplicate, using the same protein and peptide preparations, and data were fit as described by Foight et al. (20) to a complete competitive binding model (47).

[5] = biological target: T2, Mcl-1; assay: as above; design: Mcl-1 residues 172-327; made in house; host or cells: E. coli
Method: as §1

[6] = biological target: T1, Bfl-1; assay: as above; design: Bfl-1 residues 1-151; made in house; host or cells: E. coli
Method: as §1

[7] = tested on: B-ALL cell lines with engineered dependencies on human anti-apoptotic genes (Bfl-1, Mcl-1, Bcl-xL, Bcl-2); assay: Cellular BH3 profiling assay (mitochondrial depolarization, JC-1, permeabilized cells); assay type: cell-based, murine; settings: for pro-apoptotic response in dependent cell lines: permeabilized cells, Bfl-1 vs Mcl-1 or Bcl-xL dependent cell lines
Method: Cell Culture We used murine p185+ Arf^−/^− B-ALL suspension cell lines with engineered dependencies on the human anti-apoptotic genes (Bfl-1, Mcl-1, Bcl-xL), along with an apoptosis-resistant (Bax^−/−/Bak^−/−) control(51). Cells were grown in Roswell Park Memorial Institute (RPMI) 1640 medium supplemented with 10% (v/v) fetal bovine serum, 2 mM L-glutamine, 100 U/mL penicillin, […] streptomycin, 0.1 mM minimal essential medium nonessential amino acids, 25 mM HEPES and […] β-mercaptoethanol. Cell line authentication was performed by short tandem repeat (STR) analysis. Cell were monitored for mycoplasma contamination using the MycoAlert® Mycoplasma Detection Kit (Lonza, Rockland, Mass., USA).
(§2) Cellular BH3 profiling assay BH3 profiling was adapted from the protocol of Ryan and Letai (32). Peptides were diluted at the desired concentrations in MEB buffer (150 mM Mannitol, 10 mM HEPES-KOH pH 7.5, 50 mM KCl, 0.02 mM EGTA, 0.02 mM EDTA, 0.1% BSA and 5 mM succinate) containing […] oligomycin, […] digitonin, […] and 10 mM 2-mercaptoethanol in 384-well plates. […] Fluorescence emission was measured every 5 min for 3 hr at […] with 525 nm excitation on a Tecan Spark 10M. To produce percent depolarization, the area under the resulting curve was calculated and normalized to the assay controls. […]
as §2, with “Peptides” for “Cellular BH3 profiling assay BH3 profiling was adapted from the protocol of Ryan and Letai (32). Peptides”, “titrated by serial dilution” for “diluted at the desired concentrations”, “HEPES-KOH,” for “HEPES-KOH”, “Succinate)” for “succinate)”, “h” for “hr”
As depicted in FIGS. 7-11, permeabilized cells were contacted with increasing doses of BH3 peptides, ad mitochondria outer membrane permeabilization (MOMP) was monitored using a voltage-sensitive dye (JC-1). […]

[8] = biological target: T1, Bfl-1; assay: Yeast cell-surface display binding (FACS titration); design: Bfl-1 residues 1-151; made in house; host or cells: E. coli; settings: for binding to Bfl-1 in yeast display: SORTCERY designs; for reported affinity, Bfl-1: Table X3, this study, Bfl-1 specific peptides, cell-surface measurement, highest concentration tested 1000 nM
Description: Protein constructs Anti-apoptotic protein constructs used in this work correspond to human Bcl-xL residues 1-209, Mcl-1 residues 172-327 and Bfl-1 residues 1-151, expressed in E. coli and purified as described by Dutta et al. (45).
Cells were filtered and washed 2× in chilled BSS before resuspending the labeled cells in BSS and using a BD FACSAria flow cytometer or a BD FACSCanto and FACSDiva software for cell sorting or analysis.
Crystals were flash frozen in liquid nitrogen.

[9] = fluoresceinated Bim BH3 competitor, as reported by Dutta et al. 2013
[10] = Table X2, 50 nM protein, 25 nM fluoresceinated Bim BH3, SD of three replicates, read-out: Ki, Bcl-xL
[11] = Table X2, 50 nM protein, 25 nM fluoresceinated Bim BH3, SD of three replicates, read-out: Ki, Mcl-1
[12] = Table X3, this study, same values as Table X2, read-out: reported affinity, Mcl-1
[13] = Table X2, 50 nM protein, 25 nM fluoresceinated Bim BH3, SD of three replicates, read-out: Ki, Bfl-1
[14] = Table X3, this study, same values as Table X2, read-out: reported affinity, Bfl-1
[15] = Table X3, this study, same values as Table X2, read-out: reported affinity, Bcl-xL

T2 sequence (Q07820 172-327): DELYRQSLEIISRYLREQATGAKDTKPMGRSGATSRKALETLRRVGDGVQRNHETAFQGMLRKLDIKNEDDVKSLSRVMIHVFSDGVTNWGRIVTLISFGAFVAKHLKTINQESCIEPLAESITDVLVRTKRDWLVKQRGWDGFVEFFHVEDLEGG
T3 sequence (Q07817 1-209): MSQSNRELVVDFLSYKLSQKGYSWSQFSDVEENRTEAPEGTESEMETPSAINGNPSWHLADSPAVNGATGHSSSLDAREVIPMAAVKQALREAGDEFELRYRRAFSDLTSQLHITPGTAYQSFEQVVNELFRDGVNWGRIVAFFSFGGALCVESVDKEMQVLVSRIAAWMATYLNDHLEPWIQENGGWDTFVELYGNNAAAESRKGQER

For “(fl)IWIAQELRRIGDEFNAYY [Fluoresceinated Bim]”, the Kd [1, 9] is given as 0.004 ± 0.001 µM, the Kd ([2]; fluoresceinated Bim BH3 competitor, as reported by Dutta et al. 2013, read-out: Kd, Mcl-1) is given as 0.0008 ± 0.0004 µM and the Kd [3, 9] is given as 0.006 ± 0.001 µM.
For Ac-QPLIWFGAQLRRGADEFAAQRER-NH2 [srt.X7], the Ki [4, 10] was 0.0037 ± 0.0003 µM, the Ki [5, 11] was over 4 µM and the Ki [5, 12] was over 4 µM. It also gave a Ki [6, 13] of over 4 µM and a Ki [6, 14] of over 4 µM.
Substance “Ac-QRIIWIAAELRRAADELDKQIER-NH2 [srt.XF02]” has a Ki [5, 11] of over 4 µM.
In the case of “Ac-QRIIWIAAELRRAADQLDAQIER-NH2 [srt.XF03]”, the Ki [5, 11] is reported as over 4 µM.
In the case of Ac-QRVVHIAAGLRRTGDQLEAYGER-NH2 [srt.F4], the “pro-apoptotic response in dependent cell lines” value [7] is reported as “selectively induced a pro-apoptotic response in Bfl-1 dependent cell lines, but not in Mcl-1 or Bcl-xL dependent cell lines”, the “binding to Bfl-1 in yeast display” value [8] is reported as “bound Bfl-1 with high affinity in yeast display” and the “reported affinity, Bfl-1” value [8] is reported as 14 ± 2 nM. The “binding to Bfl-1 in the FP competition assay” value [6] was “undetectably”.
Substance Ac-QTLIWYGASLRRYADEFAKQRER-NH2 [srt.X1] has a Ki [4, 10] of 0.00132 ± 0.00018 µM, a Ki [5, 11] of over 4 µM and a Ki [5, 12] of over 4 µM. It also gave a Ki [6, 13] of over 4 µM and a Ki [6, 14] of over 4 µM.
For “Ac-QWLRDVVAELARIADEFHAQYER-NH2 [srt.MX05]”, the Ki [6, 13] was over 4 µM.
“Ac-QWLRWVIAELIRIADEFHAQYER-NH2 [srt.MX01]” showed a Ki [6, 13] of over 4 µM.
“Ac-RRVDEIAQILRRIGDNVTTYIER-NH2 [srt.MF06]” showed a Ki [4, 10] of over 4 µM.
With “Ac-RRVVQIAAGLRRAGDQLEKYGER-NH2 [srt.F10]” the “inhibition of Bfl-1 in the cellular assay relative to peptide FS1” value [7] was “at least as potently as a previously described peptide”, the “pro-apoptotic response in dependent cell lines” value [7] was “selectively induced a pro-apoptotic response in Bfl-1 dependent cell lines, but not in Mcl-1 or Bcl-xL dependent cell lines” and the “binding to Bfl-1 in yeast display” value [8] was “bound Bfl-1 with high affinity in yeast display”. For the same substance, the “reported affinity, Bfl-1” value [8] was 3.2 ± 0.4 nM and the “binding to Bfl-1 in the FP competition assay” value [6] was “weakly”.
For Ac-RSELEVVQELVRIGDIVVAYFER-NH2 [srt.M1], the Ki [4, 10] was over 4 µM, the Ki [4, 15] was over 4 µM and the Ki [6, 13] was over 4 µM. The Ki [6, 14] was over 4 µM.
Ac-RSQYEVIQELIRIGDIVLAYFER-NH2 [srt.M9] gave a Ki [4, 10] of over 4 µM, a Ki [4, 15] of over 4 µM and a Ki [5, 11] of 0.0006 ± 0.0003 µM. The Ki [6, 13] was over 4 µM and the Ki [6, 14] was over 4 µM.
In the case of QWVREIAAGLRLAADNVNAQLER [FS1], the Ki ([1]; previously described peptide (ref 25), read-out: Ki for Bfl-1) is listed as 0.015 µM, the Ki [2] is listed as over 5 µM and the Ki [3] is listed as 2.4 ± 0.4 µM.
In the case of QWVREIAAGLRRAADDVNAQVER [FS2], the Ki ([1]; Table X3, previously reported selective peptides, read-out: reported affinity, Bfl-1) is listed as 0.021 ± 0.006 µM, the Ki [2] is listed as 3.2 ± 0.3 µM and the Kd ([2]; read-out: Kd for Mcl-1) is listed as over 3 µM. The Ki [3] was over 5 µM.
